Assays:
benzodiazepine receptors = assay: In vivo inhibition of 3H-flunitrazepam binding to mouse forebrain membranes (Procedure 130); design: species or system mice; conditions: for ED50 binding in vivo: i.p. 15 min before 3H-FNM i.v., dose which inhibits 50% of specific 3H-FNM binding, mouse forebrain
Procedure: I. In vivo inhibition of ^3 H-flunitrazepam binding to mouse forebrain membranes by test substances administered intraperitoneally. (Procedure 130)
Twenty minutes after a dose of ^3 H-flunitrazepam (^3 H-FNM) (200 μCi/kg, i.v.) the amount of specific ^3 H-FNM binding to brain benzodiazepine receptors has reached its maximal value.
Suspensions of test substances (2 mg/ml) are prepared in 5% Duphasol-X* by sonification for 10 min using a Branson B15 microtip ultrasonifier (setting 7). Groups of three mice (female, NMR, 18-22 gram) are injected with the test substance at 100 mg/kg intraperitoneally. Fifteen minutes after test substance administration the mice are challenged with 4 μCi intraveneously of ^3 H-FNM (70-90 Ci/mole) in 200 μl physiological saline. Twenty minutes after ^3 H-FNM administration mice are sacrificed by decapitation, the forebrains rapidly excised (within 30 sec) and homogenized in 12 ml of icecold 25 mM KH2 PO4, pH 7.1, using an Ultra-Turrax homogenizer fitted with an N 10 shaft. Two aliquots of 1 ml are immediately filtered through Whatman GF/C glassfibre filters and washed with 2×5 ml of the above mentioned buffer. The amounts of radioactivity on the filters are determined by conventional scintillation counting. One group of untreated mice serves as controls. One to three mice are injected with 25 mg/kg clonazepam i.p. 30 minutes before ^3 H-FNM to determine the amount of non-specific ^3 H-FNM binding, which should be between 8-15% of total binding.
*(™Duphar; castor-oil-ethylene oxide derivative for emulsifying and solubilizing oil and other water-insoluble substances)
When doses of 100 mg/kg inhibit more than 50% of specific ^3 H-flunitrazepam binding; test substances are administered in doses, which are factors of 3.16 times lower than 100 mg/kg.
The ED50 for a test substance is defined as that dose which inhibits 50% of specific ^3 H-FNM binding. Specific binding is the amount of binding in controls minus the amount binding in clonazepam-treated mice.
The ED50 value is determined from dose response curves. If only one dose of test substance is administered the ED50 value is calculated as follows, provided that the inhibition of specific binding is within the range of 25-75%: [formula] where Co is specific binding in controls and Cx is specific binding in mice treated with test substance.

[1] = tested on: pentylenetetrazol-induced clonic convulsions in mice; assay: Pentazol clonic convulsions in mice, i.p. (Procedure 400); type: in vivo; conditions: for ED50: Mus musculus, ip, i.p. 30 min before 150 mg/kg pentylenetetrazol s.c., seizures inhibited in 50% of the animals, read-out: ED50, activity against pentazol induced convulsions, clonic
Procedure: II. Pentazol clonic conv. mice (i.p.) (Procedure 400)
(§1) Pentylenetetrazol induces clonic and tonic convulsions in mice at doses of 60-120 mg/kg s.c. The mechanism is unknown but seems to be due to some effects through the GABA receptor/benzodiazepine receptor/chloride ionophore complex. Antagonism of convulsions induced by maximal doses of pentylenetetrazol is considered predictive for drugs effective against petit mal epilepsia and anxiety.
150 mg/kg pentylenetetrazol dissolved in 0.9% NaCl is given by the subcutaneous route in volumes of 15 ml/kg to male or female NMRI mice weighing 20-25 g 30 min after an intraperitoneal injection of a test compound.
The ED50 value is calculated as the dose in μg/kg at which seizures are inhibited in 50% of the animals using a computer program based on the method of Litchfield and Wilcoxon (1949).

[2] = tested on: pentylenetetrazol-induced tonic convulsions in mice; assay: Pentazol tonic convulsions in mice, i.p. (Procedure 401); type: in vivo; conditions: for ED50: Mus musculus, ip, i.p. 30 min before 150 mg/kg pentylenetetrazol s.c., seizures inhibited in 50% of the animals, read-out: ED50, activity against pentazol induced convulsions, tonic
Procedure: III. Pentazol tonic conv. mice i.p. (Procedure 401)
as §1, with “seem” for “seems”
150 mg/kg pentylenetetrazol (Pentazol, Sigma) dissolved in 0.9% NaCl is given by the subcutaneous route in volumes of 15 ml/kg to male or female NMRI mice weighing 20-25 g 30 min after an intraperitoneal injection of a test compound.
The ED50 value is calculated as the dose in μg/kg where seizures are inhibited in 50% of the animals using a computer program based on the method of Litchfield and Wilcoxon (1949).

[3] = compared to analogue (D), Roche EP 150,040 ex. 44

SMILES	times as active in binding affinity for the benzodiazepine receptor (benzodiazepine receptors; [3])	times more as active in binding affinity for the benzodiazepine receptor (benzodiazepine receptors; compared to compound E) [times]	ED50 binding in vivo (benzodiazepine receptors)	ED50 [1] [mg/kg]	times as active in protecting against pentetrazol induced clonic convulsions [1, 3]	times as active in protecting against pentetrazol induced clonic convulsions ([1]; compared to compound E) [times]	ED50 [2] [mg/kg]	times as active in protecting against pentetrazol induced tonic convulsions [2, 3] [times]	times as active in protecting against pentetrazol induced tonic convulsions ([2]; compared to compound E) [times]
CN1Cc2c(-c3noc(C4CC4)n3)ncn2-c2ccccc2C1=O [A, 3-(5-cyclopropyl-1,2,4-oxadiazol-3-yl)-5,6-dihydro-5-methyl-6-oxo-4H-imidazo[1,5-a][1,4]benzodiazepine]	more than 4 times	12	80 µg/kg	0.07	approximately 40 times	185	0.03	10	33
CCc1nc(-c2ncn3c2CN(C)C(=O)c2ccccc2-3)no1 [B]			1,800 μg/kg	27			1.3		
CC(C)c1noc(-c2ncn3c2CN(C)C(=O)c2ccccc2-3)n1 [C]			600 µg/kg	3			1.7		
CN1Cc2c(-c3nc(C4CC4)no3)ncn2-c2ccccc2C1=O [D]			340 µg/kg	2.7			0.3		
O=C1c2c(Cl)cccc2-n2cnc(-c3noc(C4CC4)n3)c2C2CCCN12 (stereo not drawn) [E]			960 µg/kg	13			1		

Reference: patent US4622321A, “Oxadiazolylimidazobenzodiazepine, compositions, and method” (AS Ferrosan, priority 1985, dated 1986)
